EC50 data for 19 molecules are collected here from patent US20240382471A1, “GLUCAGON-LIKE PEPTIDE-1 RECEPTOR MODULATORS AND USES THEREOF” (HEPAGENE THERAPEUTICS (HK) LIMITED, priority 2021, published 2024).

Chain of GLP1R (P43220 24-463, species assumed): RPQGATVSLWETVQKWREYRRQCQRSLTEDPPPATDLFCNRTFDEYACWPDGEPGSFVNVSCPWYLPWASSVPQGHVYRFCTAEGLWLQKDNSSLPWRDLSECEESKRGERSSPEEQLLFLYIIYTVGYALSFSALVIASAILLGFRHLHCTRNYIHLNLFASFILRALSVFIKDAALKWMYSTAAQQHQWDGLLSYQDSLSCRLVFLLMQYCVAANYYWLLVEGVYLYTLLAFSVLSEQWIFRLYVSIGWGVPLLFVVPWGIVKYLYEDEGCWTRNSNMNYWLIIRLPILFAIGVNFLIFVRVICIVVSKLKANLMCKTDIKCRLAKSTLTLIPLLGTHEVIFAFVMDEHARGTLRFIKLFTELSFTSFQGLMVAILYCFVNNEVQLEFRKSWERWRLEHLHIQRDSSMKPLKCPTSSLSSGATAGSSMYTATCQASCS

The target of the assay is GLP1R (Homo sapiens, UniProt P43220). Nature of the assay: GLP1R cAMP assay (HTRF cAMP detection, agonist activity). Format: cell-based. Further details: host or cells: Flp-In-293. The settings on record: Flp-In-293-GLP1R cells, 30 min at 37° C., read-out: EC50 (nM) Assay 1. As for the experimental part:
GLP1R-mediated agonist activity was determined with a cell-based functional assay utilizing an HTRF (Homogeneous Time-Resolved Fluorescene) cAMP detection kit that measures CAMP levels in the cell. Reagents and equipment used in the assay are listed below, followed by the protocol.
• 1) Cell Line: Flp-In-293-GLP1R (constructed by Pharmaron Beijing Co., Ltd) • 2) Complete Medium: DMEM+10% FBS+1×Penicillin-Streptomycin+200 μg/mL HB • 3) Assay Buffer: 1×HBSS+20 mM HEPES+0.1% BSA+500 μM IBMX
• a) Seed Flpin-293-GLP1R cells at 20,000 cells/well into 384 well assay plate (6007680-50, PE) using complete medium. • b) Prepare 4×compound working solution with assay buffer. • c) Add 5 μL 4×compound working solution into cell plate, incubate 30 min at 37° C. • d) Dilute Eu-cAMP tracer (1/50) with lysis buffer and add 10 μl/well to assay plate. • e) Dilute Ulight-anti-cAMP (1/150) with lysis buffer and add 10 μl/well to assay plate. • f) Incubate 1 h at RT. • g) Read the plate at wavelengths of 665 nm and 615 nm on Envision 2105 plate reader.
• 3.1% Activity is calculated as follow:
% Activity=100−(Signalcmpd−SignalAve_PC)/(SignalAve_VC−SignalAve_PC)×100. • 3.2 Calculate EC50 and Plot effect-dose curve of cmpds:
Y=Bottom+(Top−Bottom)/(1+10^((Log EC50−X)*Hill Slope)) • X: log of agonist concentration; Y: % Activity.
Take `O=C(O)c1ccc2nc(CN3C4CCC3CN(c3cccc(OCc5ccc(C(F)(F)F)cc5F)n3)C4)n(C[C@@H]3CCO3)c2c1` [Compound 2-15, 2-((−3-(6-((2-fluoro-4-(trifluoromethyl)benzyl)oxy)pyridin-2-yl)-3,8-diazabicyclo[3.2.1]octan-8-yl)methyl)-1-(((S)-oxetan-2-yl)methyl)-1H-benzo[d]imidazole-6-carboxylic acid]: the EC50 was over 4 nM.

As to `N#Cc1ccc(COc2cccc(N3CC4CCC(C3)N4Cc3nc4ccc(C(=O)O)cc4n3CC3CCO3)n2)c(F)c1` (stereo not shown) [Compound 2-9, 2-((−3-(6-((4-cyano-2-fluorobenzyl)oxy)pyridin-2-yl)-3,8-diazabicyclo[3.2.1]octan-8-yl)methyl)-1-(oxetan-2-ylmethyl)-1H-benzo[d]imidazole-6-carboxylic acid], the EC50 is over 4 nM. In the case of `N#Cc1ccc(COc2cccc(N3CC4CCC(C3)N4Cc3nc4ccc(C(=O)O)cc4n3C[C@@H]3CCCO3)n2)c(F)c1` [Compound 2-10, 2-((−3-(6-((4-cyano-2-fluorobenzyl)oxy)pyridin-2-yl)-3,8-diazabicyclo[3.2.1]octan-8-yl)methyl)-1-(((S)-tetrahydrofuran-2-yl)methyl)-1H-benzo[d]imidazole-6-carboxylic acid], the 50% effective concentration (EC50) was over 4 nM. The result for `N#Cc1ccc(COc2cccc(N3CC4CN(Cc5nc6ccc(C(=O)O)cc6n5C[C@@H]5CCO5)CC4C3)n2)c(F)c1` (stereo partly drawn) [Compound 2-20, 2-[(5-{6-[(4-cyano-2-fluorophenyl)methoxy]pyridin-2-yl}-hexahydropyrrolo[3,4-c]pyrrol-2-yl)methyl]-3-[(2S)-oxetan-2-ylmethyl]-1,3-benzodiazole-5-carboxylic acid] reads 1.84 nM; that for `O=C(O)c1ccc2nc(CN3C4CCC3CN(c3cccnc3OCc3ccc(Cl)cc3F)C4)n(C[C@@H]3CCO3)c2c1` [Compound 2-17, 2-[(3-{2-[(4-chloro-2-fluorophenyl)methoxy]pyridin-3-yl}-3,8-diazabicyclo[3.2.1]octan-8-yl)methyl]-3-[(2S)-oxetan-2-ylmethyl]-1,3-benzodiazole-5-carboxylic acid], over 4 nM. The result for `N#Cc1ccc(COc2cccc(N3CC4CCC(C3)N4Cc3nc4ccc(C(=O)O)cc4n3C[C@@H]3CCO3)c2)c(F)c1` [Compound 2-18, 2-((−3-(3-((4-cyano-2-fluorobenzyl)oxy)phenyl)-3,8-diazabicyclo[3.2.1]octan-8-yl)methyl)-1-(((S)-oxetan-2-yl)methyl)-1H-benzo[d]imidazole-6-carboxylic acid] reads 1.17 nM.

Regarding `N#Cc1ccc(COc2ccnc(C34CCN(Cc5nc6ccc(C(=O)O)cc6n5C[C@@H]5CCO5)CC3C4)n2)c(F)c1` (single isomer, unassigned) [Compound 1-11-A], the EC50 was determined as 0.995 nM. The result for `N#Cc1ccc(COc2cccc(N3CC4CN(Cc5nc6ccc(C(=O)O)cc6n5CC5CCO5)CC4C3)n2)c(F)c1` (stereo not shown) [Compound 2-21, 2-[(5-{6-[(4-cyano-2-fluorophenyl)methoxy]pyridin-2-yl}-hexahydropyrrolo[3,4-c]pyrrol-2-yl)methyl]-3-(oxetan-2-ylmethyl)-1,3-benzodiazole-5-carboxylic acid] reads over 4 nM; that for `O=C(O)c1ccc2nc(CN3CC4CCC(C3)N4c3cccc(OCc4ccncc4F)n3)n(C[C@@H]3CCO3)c2c1` [Compound 2-40, 2-((−8-(6-((3-fluoropyridin-4-yl)methoxy)pyridin-2-yl)-3,8-diazabicyclo[3.2.1]octan-3-yl)methyl)-1-(((S)-oxetan-2-yl)methyl)-1H-benzo[d]imidazole-6-carboxylic acid], over 4 nM. For `N#Cc1ccc(COc2ccnc(C34CCN(Cc5nc6ccc(C(=O)O)cc6n5C[C@@H]5CCO5)CC3C4)n2)c(F)c1` (stereo partly drawn) [Compound 1-11, 2-((6-(4-((4-cyano-2-fluorobenzyl)oxy)pyrimidin-2-yl)-3-azabicyclo[4.1.0]heptan-3-yl)methyl)-1-(((S)-oxetan-2-yl)methyl)-1H-benzo[d]imidazole-6-carboxylic acid], the 50% effective concentration (EC50) was found to be 0.079 nM. Under `N#Cc1ccc(COc2cccc(N3C4CCC3CN(Cc3nc5ccc(C(=O)O)cc5n3Cc3ncco3)C4)n2)c(F)c1` [Compound 2-31, 2-[(8-{6-[(4-cyano-2-fluorophenyl)methoxy]pyridin-2-yl}-3,8-diazabicyclo[3.2.1]octan-3-yl)methyl]-3-(1,3-oxazol-2-ylmethyl)-1,3-benzodiazole-5-carboxylic acid] stands 1.5 nM. The result for `N#Cc1ccc(COc2cccc(C34CCN(Cc5nc6ccc(C(=O)O)cc6n5C[C@@H]5CCO5)CC3C4)c2)c(F)c1` (single isomer, unassigned) [Compound 1-9-B] reads 1.05 nM; that for `N#Cc1ccc(COc2cccc(N3C4CC3CN(Cc3nc5ccc(C(=O)O)cc5n3C[C@@H]3CCO3)C4)n2)c(F)c1` [Compound 2-2, 2-((6-(6-((4-cyano-2-fluorobenzyl)oxy)pyridin-2-yl)-3,6-diazabicyclo[3.1.1]heptan-3-yl)methyl)-1-(((S)-oxetan-2-yl)methyl)-1H-benzo[d]imidazole-6-carboxylic acid], over 4 nM; that for `N#Cc1ccc(COc2cccc(N3CC4CCC(C3)N4Cc3nc4ccc(C(=O)O)cc4n3Cc3ncco3)n2)c(F)c1` [Compound 2-12, 2-((−3-(6-((4-cyano-2-fluorobenzyl)oxy)pyridin-2-yl)-3,8-diazabicyclo[3.2.1]octan-8-yl)methyl)-1-(oxazol-2-ylmethyl)-1H-benzo[d]imidazole-6-carboxylic acid], over 4 nM. The result for `N#Cc1ccc(COc2cccc(C34CCN(Cc5nc6ccc(C(=O)O)cc6n5C[C@@H]5CCO5)CC3C4)n2)cc1F` (stereo partly drawn) [Compound 1-7, 2-((6-(6-((4-cyano-3-fluorobenzyl)oxy)pyridin-2-yl)-3-azabicyclo[4.1.0]heptan-3-yl)methyl)-1-(((S)-oxetan-2-yl)methyl)-1H-benzo[d]imidazole-6-carboxylic acid] reads 0.175 nM; that for `O=C(O)c1ccc2nc(CN3C4CCC3CN(c3cccc(OCc5ccc(F)cc5F)n3)C4)n(C[C@@H]3CCO3)c2c1` [Compound 2-7, 2-((−3-(6-((2,4-difluorobenzyl)oxy)pyridin-2-yl)-3,8-diazabicyclo[3.2.1]octan-8-yl)methyl)-1-(((S)-oxetan-2-yl)methyl)-1H-benzo[d]imidazole-6-carboxylic acid], over 4 nM; that for “2-((3-(6-((4-cyano-2-fluorobenzyl)oxy)pyridin-2-yl)-3,8-diazabicyclo[3.2.1]octan-8-yl)methyl)-1-((oxetan-2-yl)methyl)-1H-benzo[d]imidazole-6-carboxylic acid [Compound 2-30]”, 0.375 nM.

With `CS(=O)(=O)NC(=O)c1ccc2nc(CN3CC4CCC(C3)N4c3cccc(OCc4ccc(C#N)cc4F)n3)n(C[C@@H]3CCO3)c2c1` [Compound 2-42, 2-((−8-(6-((4-cyano-2-fluorobenzyl)oxy)pyridin-2-yl)-3,8-diazabicyclo[3.2.1]octan-3-yl)methyl)-N-(methylsulfonyl)-1-(((S)-oxetan-2-yl)methyl)-1H-benzo[d]imidazole-6-carboxamide], the EC50 was over 4 nM. Under `N#Cc1ccc(COc2cccc(N3CC4CCC(C3)N4Cc3nc4ccc(C(=O)O)cc4n3C[C@@H]3CCO3)n2)cc1` [Compound 2-4, 2-[(3-{6-[(4-cyanophenyl)methoxy]pyridin-2-yl}-3,8-diazabicyclo[3.2.1]octan-8-yl)methyl]-3-[(2S)-oxetan-2-ylmethyl]-1,3-benzodiazole-5-carboxylic acid] stands over 4 nM.
